Data: PMC9958891 (2023)

Columns and labels:
[1] = test system: 5'-FAM-c-myc-TAMRA-3' (c-myc G4 DNA, FRET) (DNA, G4) TGAGGGTGGGTAGGGTGGGTAA; test: FRET melting; conditions: K+ 100 mM, Na+ (10 mM Na3AsO4); 10 mM Tris-HCl pH 7.4; 0.2 μM DNA; compound concentration not stated; value per abstract, b23 order differs
[2] = test system: c-myc Pu22 (c-myc G4 DNA) (DNA, G4) TGAGGGTGGGTAGGGTGGGTAA; test: UV-vis absorption titration; conditions: K+ 100 mM; 10 mM Tris-HCl, pH 7.2, room temperature; 20 μM complex

| ΔTm [1] | binding constant [2] | Structure (SMILES) |
| --- | --- | --- |
| ~ 16.5 °C | ~ 2.05 × 10^7 M^−1 | COc1ccc(CCc2cc(OC)c(OC)c(OC)c2)cc1OCCCCn1c(-c2ccc(C(F)(F)F)cc2)nc2c3cccnc3c3ncccc3c21.[Ru+2].c1cnc2c(c1)ccc1cccnc12.c1cnc2c(c1)ccc1cccnc12 |
| ~ 15.5 °C |  | COc1ccc(CCc2cc(OC)c(OC)c(OC)c2)cc1OCCCCn1c(-c2ccccc2C(F)(F)F)nc2c3cccnc3c3ncccc3c21.[Ru+2].c1cnc2c(c1)ccc1cccnc12.c1cnc2c(c1)ccc1cccnc12 |
